Test results taken from patent US10301630B2, “Methods and compositions for unsilencing imprinted genes” (The University of North Carolina at Chapel Hill, priority 2010, dated 2019).
Read-outs that look alike come from different tables or passages of the source.

Test system: paternal Ube3a-YFP allele
Assay: High-content imaging of paternal Ube3a-YFP unsilencing in primary cortical neurons
Assay type: cell-based, mouse
Details: 72 h; for EC50: unsilencing paternal Ube3a-YFP; for Potency EC20 / EC20 / Potency EC20 (nM): 1 nM to 30 μM; for EC20: read-out: Potency EC20; for unsilencing of paternal Ube3a-YFP in dose-response experiments: cultured Ube3a m+/pYFP neurons
Experimental: In all screening assays, primary cortical neurons from Ube3a-YFP mice are isolated from embryonic day 15.5 animals, and the genotype of animals is determined to identify mice that encode the Ube3a-YFP transgene on the paternal allele. Freshly isolated cortical neurons are seeded into 384 well plates and cultured for 7 days. At day in vitro seven, screening is performed using multiple chemical libraries and compound concentration of 10 μM in 0.2% DMSO vehicle. After 72 h of drug exposure (run in quadruplicate wells), neurons are fixed with 4% para formaldehyde and processed for immunofluorescence using an anti-GFP-Alexa 488 conjugated antibody to enhance the signal of Ube3a-YFP in neurons. For image analyses, individual wells of immunofluorescence-processed plates are imaged fro DAPI and GFP fluorescence using the BD-Pathway 855 high-content imaging microscope. Ube3a-YFP fluorescence intensities in individual neurons are determined in drug-treated wells and normalized to 0.2% DMSO-treated (i.e., vehicle control) wells using custom written macros and algorithms using NIH Image J and Arrayscan Cell Profiler software programs. These image analyses enable masking of nuclei in individual neurons and determination of Ube3a-YFP fluorescence intensity in the nuclei of individual neurons.
For these studies, DIV 7 primary neurons encoding paternal Ube3a-YFP are dose treated with hit compounds across seven orders of magnitude in full and half log molar concentrations (3 pM to 30 μM). Ube3a-YFP fluorescence intensities in living neurons are determined again by high-content imaging microscopy after 72 h treatments. The dose response results are analyzed by least squares sigmoidal dose-response curve fitting models using Graphpad Prism 5.0 (Graphpad Software, Inc.). The calculated EC50 values (potencies) and Y value top plateau (estimated efficacies or Emax) enable comparative analyses of the relative potency and efficacy of the identified compounds.
Primary cortical neurons were isolated from E13.5-16.5 Ube3a-YFP mice. Screening was performed in quadruplicate at DIV7 using multiple chemical libraries and a compound concentration of 10 μM in 0.2% DMSO vehicle. After 72 h of drug exposure, neurons were fixed with 4% paraformaldehyde in PBS for 35 min, permeabilized with 0.3% Triton X-100 in PBS on ice for 30 min, and blocked by 5% goat serum with 0.1% Triton X-100 in PBS at room temperature for 1 hr. Cells were incubated with a rabbit polyclonal antibody to GFP (1:1000, Novus Biologicals, NB600-308) at room temperature for 1 hr and then incubated with Alexa Fluor 488 goat antibody to rabbit IgG (1:200, Invitrogen, A11008) and DAPI (1:10,000, Invitrogen, D-1306) at room temperature for 30 min. Individual wells of immunofluorescence-processed plates were imaged for DAPI or Alexa 488 fluorescence using the BD Pathway 855 high-content imaging microscope with a 488 excitation/515 long pass filter. Antibody-enhanced UBE3A-YFP fluorescence intensities were determined from individual neurons in drug-treated wells and normalized to neurons in wells treated with 0.2% DMSO (vehicle control). Analyses were performed with custom macros and algorithms using NIH Image J and Arrayscan Cell Profiler software programs (Thermo Scientific/Cellomics). These image analyses enabled masking of nuclei in individual neurons and determination of UBE3A-YFP fluorescence intensities in the nuclei of individual neurons (FIG. 16).
DIV7 primary neurons from Ube3a^m+/pYFP mice were dose-treated for 72 h with topoisomerase I and II inhibitors in ten point dose-responses in full and half log molar concentrations (1 nM to 30 μM). Neurons were fixed, processed for immunofluorescence, and UBE3A-YFP fluorescence intensities were again determined by high-content imaging microscopy.

[1] = Table 1, Ube3a-YFP fluorescence intensity above control cells (0.2% DMSO treated), cortical neurons
[2] = Table 1, cortical neurons, read-out: EC50
[3] = Table 3, unsilencing the paternal allele of Ube3a-YFP in cultured neurons
[4] = Mus musculus, Cortical neurone, Table 1, Ube3a-YFP fluorescence intensity above control cells (0.2% DMSO treated), cortical neurons, read-out: Efficacy Emax (fold over control)
[5] = Mus musculus, Cortical neurone, Table 1, cortical neurons, read-out: EC50
[6] = Mus musculus, Neuron, Table 3, unsilencing the paternal allele of Ube3a-YFP in cultured neurons
[7] = Mus musculus, Neuron, Table 3, unsilencing the paternal allele of Ube3a-YFP in cultured neurons, read-out: Efficacy Emax (fold over vehicle)

Row | EC50 [5] [nM] | Molecule | Efficacy Emax (fold over control) [1] [fold over control] | EC50 [2] [nM] | Efficacy Emax (fold over vehicle) [3] | Potency EC20 [3] [nM] | maximal fold induction [4] | EC20 [6] [nM] | maximal fold induction [7] | other results
1 | – | COc1cc2c3c(n(CCCn4ccnc4)c(=O)c2cc1OC)-c1cc2c(cc1C3=O)OCO2 [NSC725776] | 1.82 ± 0.05 | 9.2 ± 2 | 1.76 ± 0.03 fold over vehicle | 10 ± 1.6 | – | – | – | –
2 | – | CCc1c2c(nc3ccccc13)-c1cc3c(c(=O)n1C2)COC(=O)[C@]3(O)CC [7-Ethyl-CPT, 7-Ethyl-Camptothecin] | 1.68 ± 0.05 | 49 ± 1.3 | 1.70 ± 0.04 fold over vehicle | 7.2 ± 2.3 | – | – | – | –
3 | – | CC[C@@]1(O)C(=O)OCc2c1cc1n(c2=O)Cc2cc3cc(O)ccc3nc2-1 [10-Hydroxy-CPT] | 1.68 ± 0.06 | 40 ± 1.4 | 1.82 ± 0.08 fold over vehicle | 14 ± 5.7 | – | – | – | –
4 | 43 ± 9.1 | CC[C@@]1(O)C(=O)OCc2c1cc1n(c2=O)Cc2cc3c([N+](=O)[O-])cccc3nc2-1 [Rubitecan (9-Nitro-CPT), Rubitecan] | – | – | – | – | 2.07 ± 0.08 | 62 ± 18 | 2.09 ± 0.09 | –
5 | 2640 ± 95 | CC[C@@]1(O)C(=O)OCc2c1cc1n(c2=O)Cc2c-1nc1ccc(O)cc1c2[Si](C)(C)C(C)(C)C [Silatecan (DB67), Silatecan] | – | – | – | – | 1.71 ± 0.06 | 2240 ± 171 | 1.65 ± 0.05 | –
6 | – | COc1cc2c3c(n(CCCN4CCOCC4)c(=O)c2cc1OC)-c1cc2c(cc1C3=O)OCO2 [NSC724998] | 1.65 ± 0.03 | 12 ± 4 | 1.69 ± 0.03 fold over vehicle | 14 ± 2.2 | – | – | – | –
7 | – | C[C@@H](CN1CC(=O)NC(=O)C1)N1CC(=O)NC(=O)C1 [Dexrazoxane (ICRF-187), Dexrazoxane] | – | – | – | – | – | 20500 ± 1450 | 1.82 ± 0.05 | unsilencing of paternal Ube3a-YFP in dose-response experiments: unsilenced the paternal Ube3a-YFP allele
8 | 18 ± 1.1 | CC[C@@]1(O)C(=O)OCc2c1cc1n(c2=O)Cc2c-1nc1ccccc1c2CCNC(C)C [Belotecan (CKD602), Belotecan] | – | – | – | – | 1.85 ± 0.04 | 19 ± 4.4 | 1.88 ± 0.05 | –
9 | – | CC[C@@]1(O)C(=O)NCc2c1cc1n(c2=O)Cc2cc3ccccc3nc2-1 [Lactam E ring-CPT (inactive), Lactam E ring-CPT] | – | – | inactive | – | – | – | – | Potency EC20 (nM) [3]: inactive; unsilencing of paternal Ube3a-YFP in dose-response experiments: failed to unsilence the paternal Ube3a-YFP allele
10 | – | COc1cc([C@@H]2c3cc4c(cc3[C@@H](O[C@@H]3O[C@@H]5CO[C@@H](C)O[C@H]5[C@H](O)[C@H]3O)[C@H]3COC(=O)[C@H]23)OCO4)cc(OC)c1O [Etoposide] | – | – | – | – | – | 1600 ± 980 | 1.68 ± 0.04 | unsilencing of paternal Ube3a-YFP in dose-response experiments: unsilenced the paternal Ube3a-YFP allele
11 | – | ICRF-193 | – | – | – | – | – | – | – | EC50 (Table 1, cortical neurons): 131 ± 13 nM; Potency EC20 (nM) [3]: 205 ± 70^ nM; unsilencing of paternal Ube3a-YFP in dose-response experiments: unsilenced the paternal Ube3a-YFP allele
12 | – | COc1cc2c3c(n(CCCNCCO)c(=O)c2cc1OC)-c1cc2c(cc1C3=O)OCO2 [NSC706744] | 1.76 ± 0.03 | 6.2 ± 2 | 1.84 ± 0.07 fold over vehicle | 11 ± 3.2 | – | – | – | –
13 | – | CCc1c2c(nc3ccc(O)cc13)-c1cc3c(c(=O)n1C2)COC(=O)[C@]3(O)CC [7-Ethyl-10-Hydroxy-CPT] | 2.00 ± 0.09 | 33 ± 1.3 | 1.99 ± 0.06 fold over vehicle | 11 ± 3.2 | – | – | – | –
14 | 28 ± 10 | COc1cc(NS(C)(=O)=O)ccc1Nc1c2ccccc2nc2ccccc12 [Amsacrine] | – | – | – | – | 1.65 ± 0.05 | 27 ± 5.2 | 1.74 ± 0.06 | –

Row | Molecule | EC50 [5] [nM] | Efficacy Emax (fold over control) [1] [fold over control] | EC50 [2] [nM] | Efficacy Emax (fold over vehicle) [3] | Potency EC20 [3] [nM] | maximal fold induction [4] | EC20 [6] [nM] | maximal fold induction [7] | other results
15 | CC[C@@]1(O)C(=O)OCc2c1cc1n(c2=O)Cc2cc3ccccc3nc2-1 [Camptothecin (CPT), Camptothecin] | 32 ± 1.3 | – | – | – | – | 1.66 ± 0.06 | 21 ± 3.8 | 2.11 ± 0.05 | –
